From patent publication US20050197338A1, “Substituted pyrazole urea compounds for the treatment of inflammation” (priority 2003, published 2005)

target: T1, human IKK-2 (rhIKK-2 homodimer) (Homo sapiens, UniProt O14920); test: IKK-2 Resin Enzyme Assay (Human IKK-2 Enzyme Assay); type: biochemical; details: human IKK-2, resin enzyme assay; read-out: IC50 (μM) hIKK-2
T1 construct: FLAG (DYKDDDDKD) (C); made in house; host or cells: insect cells (baculovirus, pFastBac)
T1 sequence (O14920 1-756): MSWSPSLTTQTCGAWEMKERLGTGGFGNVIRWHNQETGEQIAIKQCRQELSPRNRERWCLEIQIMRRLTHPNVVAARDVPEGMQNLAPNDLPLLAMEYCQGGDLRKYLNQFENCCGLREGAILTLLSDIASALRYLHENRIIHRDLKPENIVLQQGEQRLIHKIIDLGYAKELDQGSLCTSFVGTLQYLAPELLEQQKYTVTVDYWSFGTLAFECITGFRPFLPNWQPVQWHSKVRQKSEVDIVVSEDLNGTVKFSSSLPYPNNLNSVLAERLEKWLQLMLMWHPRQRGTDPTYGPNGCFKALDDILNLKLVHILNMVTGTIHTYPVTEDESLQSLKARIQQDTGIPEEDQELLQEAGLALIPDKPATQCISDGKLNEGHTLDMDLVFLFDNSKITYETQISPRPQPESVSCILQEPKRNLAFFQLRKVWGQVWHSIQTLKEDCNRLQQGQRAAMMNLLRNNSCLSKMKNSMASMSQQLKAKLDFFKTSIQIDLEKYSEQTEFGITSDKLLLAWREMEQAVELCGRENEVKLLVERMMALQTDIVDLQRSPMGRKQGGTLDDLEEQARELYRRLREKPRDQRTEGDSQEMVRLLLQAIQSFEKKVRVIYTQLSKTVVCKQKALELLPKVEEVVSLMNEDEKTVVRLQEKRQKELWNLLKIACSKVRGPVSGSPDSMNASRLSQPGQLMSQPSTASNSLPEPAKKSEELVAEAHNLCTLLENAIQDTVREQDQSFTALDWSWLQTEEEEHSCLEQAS
From the text: Materials: SAM^2™96 Biotin capture plates were from Promega. Anti-FLAG affinity resin, FLAG-peptide, NP-40 (Nonidet P-40), BSA, ATP, ADP, AMP, LPS (E. coli serotype 0111:B4), and dithiothreitol were obtained from Sigma Chemicals. Antibodies specific for NEMO (IKK-γ) (FL-419), IKK-1 (H-744), IKK-2(H-470) and IκBa(C-21) were purchased from Santa Cruz Biotechnology. Ni-NTA resin was purchased from Qiagen. Peptides were purchased from American Peptide Company. Protease inhibitor cocktail tablets were from Boehringer Mannheim. Sephacryl S-300 column was from Pharmacia LKB Biotechnology. Centriprep-10 concentrators with a molecular weight cutoff of 10 kDa and membranes with molecular weight cut-off of 30 kDa were obtained from Amicon. [γ-^33P] ATP (2500 Ci/mmol) and [γ-^32P] ATP (6000 Ci/mmol) were purchased from Amersham. The other reagents used were of the highest grade commercially available.
Cloning and Expression: cDNAs of human IKK-1 and IKK-2 were amplified by reverse transcriptase-polymerase chain reaction from human placental RNA (Clonetech). hlKK-1 was subcloned into pFastBac HTa (Life Technologies) and expressed as N-terminal His6-tagged fusion protein. The hlKK-2 cDNA was amplified using a reverse oligonucleotide primer which incorporated the peptide sequence for a FLAG-epitope tag at the C-terminus of the IKK-2 coding region (DYKDDDDKD). The hlKK-2:FLAG cDNA was subcloned into the baculovirus vector pFastBac. The rhIKK-2 ([…]) mutant was constructed in the same vector used for wild type rhIKK-2 using a QuikChange™ mutagenesis kit (Stratagene). Viral stocks of each construct were used to infect insect cells grown in 40 L suspension culture. […] Cell lysates were stored at −80° C. until purification of the recombinant proteins was undertaken as described below.
Enzyme Isolation: All purification procedures were carried out at 4° C. unless otherwise noted. Buffers used are: buffer A: 20 mM Tris-HCl, pH 7.6, containing 50 mM NaCl, 20 mM NaF, 20 mM β-Glycerophosphate, 500 μM sodium orthovanadate, 2.5 mM metabisulfite, 5 mM benzamidine, 1 mM EDTA, 0.5 mM EGTA, 10% glycerol, 1 mM DTT, 1× Complete™ protease inhibitors; buffer B: same as buffer A, except 150 mM NaCl, and buffer C: same as buffer A, except 500 mM NaCl.
Isolation of rhIKK-2 homodimer: A 10-liter culture of baculovirus-expressing IKK-2 tagged with FLAG peptide was centrifuged and the cell pellet (MOI=0.1 and 1=72 h) was re-suspended in buffer A. These cells were microfluidized, and centrifuged at 100,000×g for 45 min. Supernatant was passed over a G-25 column equilibrated with Buffer A. Protein peak was collected and incubated with anti-FLAG affinity resin on a rotator overnight in buffer B. The resin was washed in batch with 10-15 bed volumes of buffer C. Washed resin was poured into a column and rhIKK-2 homodimer was eluted using 5 bed volumes of buffer B containing FLAG peptide. 5 mM DTT, 0.1% NP-40 and BSA (concentrated to 0.1% in final amount) was added to the eluted enzyme before concentrating in using an Amicon membrane with a molecular weight cut-off of 30 kDa. Enzyme was aliquoted and stored at −80° C.
IKK-2 Resin Enzyme Assay: IKK-2 kinase activity was measured using a biotinylated IκBα peptide (Gly-Leu-Lys-Lys-Glu-Arg-Leu-Leu-Asp-Asp-Arg-His-Asp-Ser32-Gly-Leu-Asp-Ser36-Met-Lys-Asp-Glu-Glu) (American Peptide Co.). 20 μL of the standard reaction mixture contained 5 μM biotinylated IκBα peptide, 0.1 μCi/reaction [γ-^33P] ATP (Amersham) (about 1×10^5 cpm), 1 μM ATP (Sigma), 1 mM DTT (Sigma), 2 mM MgCl2 (Sigma), 2 mM MnCl2 (Sigma), 10 mM NaF (Sigma), 25 mM Hepes (Sigma) buffer, pH 7.6 and 20 μL enzyme solution and 10 μL inhibitor in a final volume of 50 μL. After incubation at 25° C. for 30 min, 150 μL resin (Dowex anion-exchange resin AG1X8 200-400 mesh) in 900 mM formate, pH 3.0 was added to each well to stop the reaction. Resin was allowed to settle for 1 h and 50 μL of supernatant was removed to a Micolite-2 flat bottom plate (Dynex). […]

| SMILES | IC50 [µM] |
| --- | --- |
| CCCCc1ccc(-c2ccc(-n3cc(C(N)=O)c(NC(N)=O)n3)cc2)cc1 [Example 128] | > 20 |
| NC(=O)Nc1cn(-c2cccc(-c3cc(F)cc(F)c3)c2)nc1C(N)=O [Example 350, 4-[(aminocarbonyl)amino]-1-(3′,5′-difluoro-1,1′-biphenyl-3-yl)-1H-pyrazole-3-carboxamide] | > 20 |
| Cc1cc(-c2ccc(-n3cc(NC(N)=O)c(C(N)=O)n3)cc2)ccc1F [Example 109, 4-[(aminocarbonyl)amino]-1-(4′-fluoro-3′-methyl-1,1′-biphenyl-4-yl)-1H-pyrazole-3-carboxamide] | 5.52 |
| NC(=O)Nc1nn(-c2ccc(-c3ccc(F)c(F)c3)cc2)cc1C(N)=O [Example 114] | 3.19 |
| NC(=O)Nc1cn(-c2cccc(-c3ccc(F)cc3)c2)nc1C(N)=O [Example 42, 4-[(aminocarbonyl)amino]-1-(4′-fluoro-1,1′-biphenyl-3-yl)-1H-pyrazole-3-carboxamide] | 9.22 |
| NCc1cccc(-c2ccc(-n3cc(NC(N)=O)c(C(N)=O)n3)cc2)c1 [Example 28, 4-[(aminocarbonyl)amino]-1-[3′-(aminomethyl)-1,1′-biphenyl-4-yl]-1H-pyrazole-3-carboxamide] | 2.79 |
| CC(=O)c1ccccc1-c1cccc(-n2cc(NC(N)=O)c(C(N)=O)n2)c1 [Example 91, 1-(2′-acetyl-1,1′-biphenyl-3-yl)-4-[(aminocarbonyl)amino]-1H-pyrazole-3-carboxamide] | 3.45 |
| NC(=O)Nc1cn(-c2cccc(/C=C/c3ccccc3)c2)nc1C(N)=O [Example 67, 4-[(aminocarbonyl)amino]-1-{3-[(E)-2-phenylvinyl]phenyl}-1H-pyrazole-3-carboxamide] | 5.24 |
| CCOc1cc(-n2cc(NC(N)=O)c(C(N)=O)n2)ccc1-c1cccc(O)c1 [Example 230, 4-[(aminocarbonyl)amino]-1-(2-ethoxy-3′-hydroxy-1,1′-biphenyl-4-yl)-1H-pyrazole-3-carboxamide] | 2.02 |
| Cc1cc(-c2ccccc2O)ccc1-n1cc(NC(N)=O)c(C(N)=O)n1 [Example 235, 4-[(aminocarbonyl)amino]-1-(2′-hydroxy-3-methyl-1,1′-biphenyl-4-yl)-1H-pyrazole-3-carboxamide] | 13.2 |
| NC(=O)Nc1nn(-c2ccc(-c3ccc(Cl)cc3Cl)cc2)cc1C(N)=O [Example 134, 4-[(aminocarbonyl)amino]-1-(2′,4′-dichloro-1,1′-biphenyl-4-yl)-1-pyrazole-3-carboxamide] | 3.84 |

Now those with a lower IC50, led by results:

| IC50 [µM] | SMILES |
| --- | --- |
| 1.8 | NC(=O)Nc1cn(-c2cccc(-c3ccc4[nH]ccc4c3)c2)nc1C(N)=O [Example 65, 4-[(aminocarbonyl)amino]-1-[3-(1H-indol-5-yl)phenyl]-1H-pyrazole-3-carboxamide] |
| 1.65 | NC(=O)Nc1cn(-c2cccc(-c3cccc(C(=O)NC4CC4)c3)c2)nc1C(N)=O [Example 81] |
| 1.54 | COc1ccc(CNC(=O)CCc2cccc(-c3ccc(-n4cc(NC(N)=O)c(C(N)=O)n4)cc3)c2)c(OC)c1 [Example 380, 4-[(aminocarbonyl)amino]-1-(3′-{3-[(2,4-dimethoxybenzyl)amino]-3-oxopropyl}-1,1′-biphenyl-4-yl)-1H-pyrazole-3-carboxamide] |
| 1.53 | N#CCOc1cccc(-c2ccc(-n3cc(NC(N)=O)c(C(N)=O)n3)cc2F)c1 [Example 227, 4-[(aminocarbonyl)amino]-1-[3′-(cyanomethoxy)-2-fluoro-1,1′-biphenyl-4-yl]-1H-pyrazole-3-carboxamide] |
| 1.11 | N#CCOc1ccccc1-c1ccc(-n2cc(NC(N)=O)c(C(N)=O)n2)cc1C(F)(F)F [Example 238, 4-[(aminocarbonyl)amino]-1-[2′-(cyanomethoxy)-2-(trifluoromethyl)-1,1′-biphenyl-4-yl]-1H-pyrazole-3-carboxamide] |
| 1.09 | NC(=O)Nc1cn(-c2cccc(-c3ccccc3-c3ccccc3)c2)nc1C(N)=O [Example 371, 4-[(aminocarbonyl)amino]-1-(1,1′:2′,1″-terphenyl-3-yl)-1H-pyrazole-3-carboxamide] |
| 0.984 | N#Cc1cccc(-c2cccc(-n3cc(NC(N)=O)c(C(N)=O)n3)c2)c1 [Example 341, 4-[(aminocarbonyl)amino]-1-(3′-cyano-1,1′-biphenyl-3-yl)-1H-pyrazole-3-carboxamide] |
| 0.79 | N#CCc1ccc(-c2ccc(-n3cc(NC(N)=O)c(C(N)=O)n3)cc2)cc1 [Example 37, 4-[(aminocarbonyl)amino]-1-[4′-(cyanomethyl)-1,1′-biphenyl-4-yl]-1H-pyrazole-3-carboxamide] |
| 0.724 | Cc1cc(-n2cc(NC(N)=O)c(C(N)=O)n2)ccc1S(=O)(=O)c1ccc(F)cc1 [Example 298, 1-[4-(4-fluoro-benzenesulfonyl)-3-methyl-phenyl]-4-ureido-1H-pyrazole-3-carboxylic acid amide] |
| 0.59 | NC(=O)Nc1cn(-c2ccc(-c3ccc[nH]3)cc2)nc1C(N)=O [Example 26, 4-[(aminocarbonyl)amino]-1-[4-(1H-pyrrol-2-yl)phenyl]-1H-pyrazole-3-carboxamide] |
| 0.31 | NC(=O)Nc1cn(-c2cccc(-c3ccncc3)c2)nc1C(N)=O [Example 45, 4-[(aminocarbonyl)amino]-1-(3-pyridin-4-ylphenyl)-1H-pyrazole-3-carboxamide] |
| 0.113 | NC(=O)Nc1cn(-c2ccc(S(=O)(=O)c3ccc(F)cc3)cc2Cl)nc1C(N)=O [Example 377, 1-(1-(4-(4-fluorophenylsulfonyl)-2-chlorophenyl)-3-carbamoyl-1H-pyrazol-4-yl)urea] |
| 0.105 | CN(C)C(=O)COc1cccc(-c2ccc(-n3cc(NC(N)=O)c(C(N)=O)n3)cc2)c1 [Example 181, 4-[(aminocarbonyl)amino]-1-{3′-[2-(dimethylamino)-2-oxoethoxy]-1,1′-biphenyl-4-yl}-1H-pyrazole-3-carboxamide] |
